Reference: patent publication US11092608B2, “Methods of identifying modulators of CASTOR1-GATOR2 interaction and use of same to modulate mTORC1” (Whitehead Institute for Biomedical Research, priority 2015, dated 2021)
“And” between values parts separate entries of the source, which are not always exact repeats. Equal values may be shown once.

Tests used:
[1] = molecular target: T1, interaction of GATOR2 with CASTOR1 homodimer (Homo sapiens, UniProt Q8WTX7); test: In vitro CASTOR-GATOR2 dissociation assay; format: biochemical
T1 construct: made in house; host or cells: HEK-293T co-transfected with the CASTOR cDNAs; GATOR2 is the cells' endogenous complex, co-immunoprecipitated on anti-HA beads
T1 sequence (Q8WTX7 1-329) 1: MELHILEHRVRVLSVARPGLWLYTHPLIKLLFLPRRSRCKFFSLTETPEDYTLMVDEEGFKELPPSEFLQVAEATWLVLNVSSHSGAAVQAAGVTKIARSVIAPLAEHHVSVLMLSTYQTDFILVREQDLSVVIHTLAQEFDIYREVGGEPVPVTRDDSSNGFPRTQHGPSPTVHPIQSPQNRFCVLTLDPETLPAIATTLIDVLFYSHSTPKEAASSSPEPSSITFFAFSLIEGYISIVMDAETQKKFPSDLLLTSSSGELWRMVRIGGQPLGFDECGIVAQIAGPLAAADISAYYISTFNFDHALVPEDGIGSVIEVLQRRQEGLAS
T1 sequence (Q8WTX7 1-329) 2: T1 sequence (Q8WTX7 1-329) 1
Experimental: (§1) HEK-293T cells co-transfected with 40 ng CASTOR1-HA and either 80 ng CASTOR1-FLAG (CASTOR1 homodimer) or 80 ng CASTOR2-FLAG (CASTOR1-CASTOR2 heterodimer) were starved for all amino acids for 50 minutes, lysed and subjected to anti-HA immunoprecipitation as described previously. The CASTOR-GATOR2 complexes immobilized on agarose beads were washed once in Triton wash buffer, three times in Triton wash buffer supplemented with 500 mM NaCl, and then incubated for 20 minutes in 1 mL of ice-cold Triton wash buffer supplemented with 500 mM NaCl and the indicated concentrations of individual amino acids. The amount of GATOR2 that remained bound to CASTOR complexes was assayed by SDS-PAGE and immunoblotting as previously described.

[2] = molecular target: T2, interaction of GATOR2 with CASTOR1-CASTOR2 heterodimer (Homo sapiens, UniProt Q8WTX7); test: In vitro CASTOR-GATOR2 dissociation assay; format: biochemical
T2 construct: made in house; host or cells: HEK-293T co-transfected with the CASTOR cDNAs; GATOR2 is the cells' endogenous complex, co-immunoprecipitated on anti-HA beads
T2 sequence (Q8WTX7 1-329): T1 sequence (Q8WTX7 1-329) 1
T2 sequence (A6NHX0 1-329 partner): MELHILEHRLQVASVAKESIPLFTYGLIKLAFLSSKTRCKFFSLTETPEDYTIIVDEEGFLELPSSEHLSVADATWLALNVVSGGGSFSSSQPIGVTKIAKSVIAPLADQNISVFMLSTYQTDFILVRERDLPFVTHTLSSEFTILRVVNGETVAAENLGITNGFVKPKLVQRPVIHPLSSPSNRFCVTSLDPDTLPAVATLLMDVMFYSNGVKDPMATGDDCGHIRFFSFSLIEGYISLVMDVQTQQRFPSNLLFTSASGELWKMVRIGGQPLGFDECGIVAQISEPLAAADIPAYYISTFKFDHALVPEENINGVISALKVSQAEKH
Experimental: as §1

CASTOR2 homodimer = molecular target: T3, CASTOR2 homodimer (Homo sapiens, UniProt A6NHX0); test: Arginine binding assay (equilibrium binding with [3H]-labeled arginine); details: immunopurified from HEK-293T cells
T3 construct: made in house; host or cells: HEK-293T (transfected, pRK5-based cDNA plasmids; anti-FLAG immunoprecipitates)
T3 sequence (A6NHX0 1-329) 1: T2 sequence (A6NHX0 1-329 partner)
T3 sequence (A6NHX0 1-329) 2: T2 sequence (A6NHX0 1-329 partner)
Experimental: Four million HEK-293T cells were plated in a 15 cm plate four days prior to the experiment. Forty-eight hours after plating, the cells were transfected via the polyethylenimine method (Boussif et al., 1995) with the pRK5-based cDNA expression plasmids indicated in the figures in the following amounts: 15 μg FLAG-Rap2A, 400 ng CASTOR1-FLAG or CASTOR2-FLAG with 1200 ng CASTOR1-HA or 1200 ng CASTOR2-HA, 400 ng CASTOR1 1280A-FLAG with 1200 ng CASTOR1 1280A-HA. The total amount of plasmid DNA in each transfection was normalized to 15 μg with empty pRK5. Forty-eight hours after transfection cells were lysed as previously described (Wolfson et al., 2015). […]
For the binding assays, all immunoprecipitates were washed in pairs once with Triton wash buffer, three times with Triton lysis buffer supplemented with 500 mM NaCl, and three times with cytosolic buffer (0.1% Triton, 40 mM HEPES pH 7.4, 10 mM NaCl, 150 mM KCl, 2.5 mM MgCl2). […] Three 10 μl aliquots of this mix were separately quantified using a TriCarb scintillation counter (PerkinElmer).
For each sample, an immunoprecipitation was performed in parallel. […] Equal volumes of the eluent were resolved by 10% SDS-PAGE and analyzed with Coomassie Blue stain. Kd values were calculated as previously described (Wolfson et al., 2015).

[3] = molecular target: T4, CASTOR1-CASTOR2 heterodimer (Homo sapiens, UniProt Q8WTX7); test: Arginine binding assay (equilibrium / competition binding with [3H]-labeled amino acids)
T4 construct: made in house; host or cells: HEK-293T (transfected, pRK5-based cDNA plasmids; anti-FLAG immunoprecipitates)
T4 sequence (Q8WTX7 1-329): T1 sequence (Q8WTX7 1-329) 1
T4 sequence (A6NHX0 1-329 partner): T2 sequence (A6NHX0 1-329 partner)
Experimental: (§2) Four million HEK-293T cells were plated in a 15 cm plate four days prior to the experiment. Forty-eight hours after plating, the cells were transfected via the polyethylenimine method (Boussif et al., 1995) with the pRK5-based cDNA expression plasmids indicated in the figures in the following amounts: 15 μg FLAG-Rap2A, 400 ng CASTOR1-FLAG or CASTOR2-FLAG with 1200 ng CASTOR1-HA or 1200 ng CASTOR2-HA, 400 ng CASTOR1 1280A-FLAG with 1200 ng CASTOR1 1280A-HA. The total amount of plasmid DNA in each transfection was normalized to 15 μg with empty pRK5. Forty-eight hours after transfection cells were lysed as previously described (Wolfson et al., 2015). If multiple samples of the same type were represented in the experiment, the cell lysates were combined, mixed, and evenly distributed amongst the relevant tubes.
(§3) Anti-FLAG immunoprecipitates were prepared as previously described, with the exception that prior to incubation with lysates, the beads were blocked by rotating in 1 μg/μl bovine serum albumin (BSA) for 20 minutes at 4° C. and subsequently washed twice in lysis buffer. Thirty μl of the 50% slurry of beads in lysis buffer was added to each of the clarified cell lysates and incubated for 90 minutes.
(§4) For the binding assays, all immunoprecipitates were washed in pairs once with Triton wash buffer, three times with Triton lysis buffer supplemented with 500 mM NaCl, and three times with cytosolic buffer (0.1% Triton, 40 mM HEPES pH 7.4, 10 mM NaCl, 150 mM KCl, 2.5 mM MgCl2). All the liquid was subsequently aspirated and a 15 μl aliquot of proteins bound to the beads was incubated for one hour on ice in cytosolic buffer with the appropriate amount of [^3H]-labeled amino acids and cold amino acids. At the end of one hour, the beads were spun at 2,500 rpm for 25 seconds, aspirated, and rapidly washed three times with binding wash buffer (0.1% Triton, 40 mM HEPES pH 7.4, 150 mM NaCl). The beads were aspirated dry and resuspended in 85 μl of binding wash buffer. Three 10 μl aliquots of this mix were separately quantified using a TriCarb scintillation counter (PerkinElmer).
(§5) For each sample, an immunoprecipitation was performed in parallel. After washing four times as previously described, the beads were aspirated dry and resuspended in 50 μl FLAG elution buffer (Triton wash buffer supplemented with 300 mM NaCl and 1 mg/ml FLAG peptide), and incubated with rotation for 1 hour at 4° C. The eluent was subsequently resuspended in sample buffer. Equal volumes of the eluent were resolved by 10% SDS-PAGE and analyzed with Coomassie Blue stain. Kd values were calculated as previously described (Wolfson et al., 2015).

CASTOR1 homodimer = molecular target: T5, CASTOR1 homodimer (Homo sapiens, UniProt Q8WTX7); test: as above; details: for binding of radiolabeled amino acid to CASTOR1 homodimer: immunopurified from HEK-293T cells, competed by excess nonradiolabelled arginine
T5 construct: made in house; host or cells: HEK-293T (transfected, pRK5-based cDNA plasmids; anti-FLAG immunoprecipitates)
T5 sequence (Q8WTX7 1-329) 1: T1 sequence (Q8WTX7 1-329) 1
T5 sequence (Q8WTX7 1-329) 2: T1 sequence (Q8WTX7 1-329) 1
Experimental: as §2, §3, §4, §5

[4] = 400 μM arginine added to purified complexes
[5] = competition binding with increasing cold arginine, FLAG immunoprecipitates from HEK-293T cells

Compound | dissociation of GATOR2 from CASTOR1 homodimer [1, 4] | EC50 ([1]; purified complexes from amino acid starved HEK-293T cells, CASTOR1 homodimer, read-out: arginine concentration for half-maximal disruption of GATOR2 interaction) | dissociation of GATOR2 from CASTOR1-CASTOR2 heterodimer [2, 4] | EC50 ([2]; purified complexes from amino acid starved HEK-293T cells, CASTOR1-CASTOR2 heterodimer, read-out: arginine concentration for half-maximal disruption of GATOR2 interaction) | binding of tritiated arginine to CASTOR2 homodimer (CASTOR2 homodimer) | arginine binding to CASTOR1-CASTOR2 heterodimer purified from E. coli ([3]; bacterially produced protein) | Kd [3, 5] | amount of arginine bound by CASTOR1-CASTOR2 heterodimer relative to CASTOR1 homodimer ([3]; immunopurified from HEK-293T cells) | arginine binding to CASTOR1 homodimer purified from E. coli (CASTOR1 homodimer; bacterially produced protein) | Kd (CASTOR1 homodimer; [5]) | binding of radiolabeled amino acid to CASTOR1 homodimer (CASTOR1 homodimer)
N=C(N)NCCC[C@H](N)C(=O)O [arginine] | sufficient to dissociate GATOR2 | 20 to 40 µM | sufficient to dissociate GATOR2 | 20 to 40 µM | not | bound arginine to a comparable degree as the complexes prepared from human cells | ~30 µM and 24.2 µM | roughly half as much arginine as the CASTOR1 homodimer | bound arginine to a comparable degree as the complexes prepared from human cells | ~30 µM and 34.8 µM | bound
CC(C)C[C@H](N)C(=O)O [leucine] | – | – | – | – | – | – | – | – | – | – | neither radiolabeled leucine nor lysine bound
NCCCC[C@H](N)C(=O)O [lysine] | – | – | – | – | – | – | – | – | – | – | neither radiolabeled leucine nor lysine bound
